Source: patent US20260097139A1, “GONADOTROPIN-RELEASING HORMONE RECEPTOR (GnRHR) TARGETED THERAPEUTICS AND USES THEREOF” (Radionetics Oncology, Inc., priority 2022, published 2026)

molecular target: T1, human GnRH receptor (Homo sapiens, UniProt P30968); experiment: IP-One functional assay for GnRHR (reported as hGnRHR Binding Ki); type: cell-based; settings: incubation time 60 min; FlpIn T-Rex 293 cells expressing human GnRH receptor; read-out: hGnRHR Binding Ki 60 min
T1 construct: expressed in transfected cells
T1 sequence (P30968 1-328): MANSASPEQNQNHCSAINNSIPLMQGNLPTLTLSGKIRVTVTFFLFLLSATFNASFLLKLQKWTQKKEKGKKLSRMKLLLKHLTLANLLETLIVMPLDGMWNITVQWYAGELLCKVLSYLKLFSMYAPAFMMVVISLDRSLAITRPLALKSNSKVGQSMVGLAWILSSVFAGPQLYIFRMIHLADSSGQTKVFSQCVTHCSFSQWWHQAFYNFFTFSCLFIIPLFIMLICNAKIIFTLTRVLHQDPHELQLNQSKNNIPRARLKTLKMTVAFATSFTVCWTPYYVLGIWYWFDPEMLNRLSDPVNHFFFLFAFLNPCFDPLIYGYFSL
Description: General overview: GnRHR is a Gq/11-coupled receptor that mediates the action of the GnRH hormone by activating the phosphatidylinositol-calcium second messenger system. Activation of the GnRHR induces the accumulation of inositol monophosphate, a stable metabolite of IP-3, that can be characterized as a measure of agonistic activity (increase in IP-One) or antagonistic activity (blockade of IP-One accumulation) by compounds of the invention. One example of an intracellular IP-One assay used to characterize GnRHR antagonists is described below.
24 hours prior to the assay, 30,000 FlpIn T-Rex 293 Cells (ThermoFisher #R78007) stably expressing the functional human GnRH receptor upon induction with tetracycline were plated in a 96-well tissue culture-treated plate in FlpIn T-Rex 293 Growth Medium [DMEM (Corning #10-013-CM) supplemented with 10% fetal bovine serum (Gemini Bio-Products #900-208), 100 U/mL penicillin; 100 μg/mL streptomycin; 2 mM L-glutamine (Gemini Bio-Products #400-110)] and 50 ng/mL tetracycline hydrocholoride (Sigma, T7660). Cells were cultured at 37° C., 5% CO2 and 95% humidity. On the day of the assay, the growth media was discarded and the cells were treated with 50 μL of a dose response curve of GnRH (Bachem #4033013) in the presence of various concentrations of fixed compound in assay buffer [10 mM HEPES (Biopioneer Cat #C0113) pH 7.4, 1 mM CaCl2) (Fisher Scientific BP510-100), 0.5 mM MgCl2 (Sigma M8266-100G), 4.2 mM KCl (Fisher Scientific P330-500), 146 mM NaCl (Spectrum Chemical #SO155), 5.5 mM Glucose (Sigma G7528), 50 mM LiCl (Fisher Scientific L121-100), 0.1% bovine serum albumin (Fisher Scientific Cat #BP1600)] and incubated for 1 hour at 37° C. (the final concentrations of GnRH ranged from 0-250 nM and the final concentrations of the compound ranged from 0-10,000 nM). 50 μL of lysis buffer (HRTF IP-one kit, Cisbio) was added on top of the treatment to lyse the cells. The lysate was transferred to 384-well plates and IP-one detection and visualization antibodies were added and incubated for 1-24 hours at room temperature. The time-resolved fluorescent signal was read with a Tecan M1000Pro (Tecan) multiplate reader. The intracellular IP-one concentrations were calculated by regression to a standard curve and were plotted vs. the concentration of the GnRH agonists in the presence of various concentrations of antagonist and the Ks of the compounds were calculated using standard curve-fitting methods. All data manipulations were performed using GraphPad Prism v8 (GraphPad, San Diego, CA).
For some analogs, the incubation time was 2 h or 4 h, as noted in Table A.

Ki, < 10 nM:
Cc1cccc(OCCC(=O)NCCOCCOCCOCCOCCOCCOCCOCCOCCNC(=O)CN2CCN(CC(=O)O)CCN(CC(=O)O)CCN(CC(=O)O)CC2)c1N(C)C(=O)c1ccc(Cl)c(-c2cnc(C(F)(F)F)cc2C#N)c1 [Compound 8, 2,2′,2″-(10-(33-(2-(4-chloro-3-(4-cyano-6-(trifluoromethyl)pyridin-3-yl)-N-methylbenzamido)-3-methylphenoxy)-2,31-dioxo-6,9,12,15,18,21,24,27-octaoxa-3,30-diazatritriacontyl)-1,4,7,10-tetraazacyclododecane-1,4,7-triyl)triacetic acid]
COc1ccccc1N(C)C(=O)c1cc(-c2cnc(C(F)(F)F)cc2C#N)c(Cl)cc1OCCOCCOCCOCCOCCOCCOCCOCCOCCNC(=O)CN1CCN(CC(=O)O)CCN(CC(=O)O)CCN(CC(=O)O)CC1 [Compound 5M-In, indium(III) 2,2′,2″-(10-(29-(5-chloro-4-(4-cyano-6-(trifluoromethyl)pyridin-3-yl)-2-((2-methoxyphenyl) (methyl)carbamoyl)phenoxy)-2-oxo-6,9,12,15,18,21,24,27-octaoxa-3-azanonacosyl)-1,4,7,10-tetraazacyclododecane-1,4,7-triyl)triacetate]
COc1ccccc1N(C)C(=O)c1cc(-c2cnc(C(F)(F)F)cc2C#N)c(Cl)cc1OCCCC(=O)NCCOCCOCCOCCOCCOCCOCCOCCOCCNC(=O)CN1CCN(CC(=O)O)CCN(CC(=O)O)CCN(CC(=O)O)CC1 [Compound 6M-In, indium(III) 2,2′,2″-(10-(34-(5-chloro-4-(4-cyano-6-(trifluoromethyl)pyridin-3-yl)-2-((2-methoxyphenyl)(methyl)carbamoyl)phenoxy)-2,31-dioxo-6,9,12,15,18,21,24,27-octaoxa-3,30-diazatetratriacontyl)-1,4,7,10-tetraazacyclododecane-1,4,7-triyl)triacetate]
CN(C(=O)c1ccc(Cl)c(-c2cnc(C(F)(F)F)cc2C#N)c1)c1ccccc1OCCC(=O)NCCOCCOCCOCCOCCOCCOCCOCCOCCNC(=O)CN1CCN(CC(=O)O)CCN(CC(=O)O)CCN(CC(=O)O)CC1 [Compound 2, 2,2′,2″-(10-(33-(2-(4-chloro-3-(4-cyano-6-(trifluoromethyl)pyridin-3-yl)-N-methylbenzamido)phenoxy)-2,31-dioxo-6,9,12,15,18,21,24,27-octaoxa-3,30-diazatritriacontyl)-1,4,7,10-tetraazacyclododecane-1,4,7-triyl)triacetic acid]
CN(C(=O)c1ccc(Cl)c(-c2cnc(C(F)(F)F)cc2C#N)c1)c1ccccc1OCCOCCOCCOCCOCCOCCOCCOCCOCCNC(=O)CN1CCN(CC(=O)O)CCN(CC(=O)O)CCN(CC(=O)O)CC1 [Compound 3M-In, indium(III) 2,2′,2″-(10-(29-(2-(4-chloro-3-(4-cyano-6-(trifluoromethyl)pyridin-3-yl)-N-methylbenzamido)phenoxy)-2-oxo-6,9,12,15,18,21,24,27-octaoxa-3-azanonacosyl)-1,4,7,10-tetraazacyclododecane-1,4,7-triyl)triacetate]

same assay, conditions: incubation time 2 h; FlpIn T-Rex 293 cells expressing human GnRH receptor; read-out: hGnRHR Binding Ki 2 h

Ki, < 10 nM:
CC1(C)CCN(S(=O)(=O)c2cc(-c3cnc(C(F)(F)F)cc3C#N)c(Cl)cc2OCCOCCOCCOCCOCCOCCOCCOCCOCCNC(=O)CN2CCN(CC(=O)O)CCN(CC(=O)O)CCN(CC(=O)O)CC2)c2ccccc21 [Compound 7, 2,2′,2″-(10-(29-(5-chloro-4-(4-cyano-6-(trifluoromethyl)pyridin-3-yl)-2-((4,4-dimethyl-3,4-dihydroquinolin-1(2H)-yl)sulfonyl)phenoxy)-2-oxo-6,9,12,15,18,21,24,27-octaoxa-3-azanonacosyl)-1,4,7,10-tetraazacyclododecane-1,4,7-triyl)triacetic acid]
COc1nc(SCCC(=O)NCCN(C)CCNC(=O)CN2CCN(CC(=O)O)CCN(CC(=O)O)CCN(CC(=O)O)CC2)nc(OC)c1NC(=O)c1ccc(Oc2cc3c(cc2C)CCC3(C)C)o1 [Compound 17, 2,2′,2″-(10-(2-((2-((2-(3-((4,6-dimethoxy-5-(5-((3,3,6-trimethyl-2,3-dihydro-1H-inden-5-yl)oxy)furan-2-carboxamido)pyrimidin-2-yl)thio)propanamido)ethyl)(methyl)amino)ethyl)amino)-2-oxoethyl)-1,4,7,10-tetraazacyclododecane-1,4,7-triyl)triacetic acid]
COc1nc(OCCOCCOCCOCCOCCOCCOCCOCCOCCNC(=O)CN2CCN(CC(=O)O)CCN(CC(=O)O)CCN(CC(=O)O)CC2)nc(OC)c1NC(=O)c1ccc(Oc2cc3c(cc2C)CCC3(C)C)o1 [Compound 4, 2,2′,2″-(10-(29-((4,6-dimethoxy-5-(5-((3,3,6-trimethyl-2,3-dihydro-1H-inden-5-yl)oxy)furan-2-carboxamido)pyrimidin-2-yl)oxy)-2-oxo-6,9,12,15,18,21,24,27-octaoxa-3-azanonacosyl)-1,4,7,10-tetraazacyclododecane-1,4,7-triyl)triacetic acid]
COc1nc(SCCC(=O)NCCN(C)CCNC(=O)[C@H](N)CCCNC(=O)CN2CCN(CC(=O)O)CCN(CC(=O)O)CCN(CC(=O)O)CC2)nc(OC)c1NC(=O)c1ccc(Oc2cc3c(cc2C)CCC3(C)C)o1 [Compound 19, (R)-2,2′,2″-(10-(7-amino-18-((4,6-dimethoxy-5-(5-((3,3,6-trimethyl-2,3-dihydro-1H-inden-5-yl)oxy)furan-2-carboxamido)pyrimidin-2-yl)thio)-12-methyl-2,8,16-trioxo-3,9,12,15-tetraazaoctadecyl)-1,4,7,10-tetraazacyclododecane-1,4,7-triyl)triacetic acid]
COc1nc(SCCC(=O)NCCC[C@@H](NC(=O)CN2CCN(CC(=O)O)CCN(CC(=O)O)CCN(CC(=O)O)CC2)C(=O)O)nc(OC)c1NC(=O)c1ccc(Oc2cc3c(cc2C)CCC3(C)C)o1 [Compound 16, (R)-2,2′,2″-(10-(2-((1-carboxy-4-(3-((4,6-dimethoxy-5-(5-((3,3,6-trimethyl-2,3-dihydro-1H-inden-5-yl)oxy)furan-2-carboxamido)pyrimidin-2-yl)thio)propanamido)butyl)amino)-2-oxoethyl)-1,4,7,10-tetraazacyclododecane-1,4,7-triyl)triacetic acid]
